Data taken from US20140377365A1, “SUSTAINED-RELEASE FORMULATION OF ROTIGOTINE” (MAP Pharmaceuticals, Inc., priority 2013, published 2014).

Test: In situ rotigotine salt screening (precipitate formation in ethanol/HFA 227 solution formulation)
Type: physicochemical
Settings: for Observation, Immediate / Observation, 1 week at RT / Observation, 1 week at 5° C.: 1 mg/mL rotigotine free base plus acid in 10% (w/w) ethanol in HFA 227; for Observation, Immediate: immediately upon preparation; for Observation, 1 week at RT: stored 1 week at room temperature; for Observation, 1 week at 5° C.: another week at 5° C. after 1 week at RT
Procedure: Rotigotine, bulk drug substance, was purchased from Chemagis (Perrigo API). A stock solution of rotigotine was prepared by dissolving rotigotine particles in ethanol at 10 mg/mL. With 1.5 mL rotigotine stock solution added to formulation bottles, each formulation bottle contained 15 mg rotigotine. For preparation of acid stock solutions, it was assumed that complete reaction or ion-pairing between rotigotine and acid. Based on the molecular weight and number of anions of each acid as listed in Table 1, acids stock solutions were prepared by dissolving the required amount in ethanol.
Each formulation bottle was filed with 1.5 mL of rotigotine stock solution and 1.0 ml, of acid stock solution. The formulation bottles (PET bottles) were then sealed with continuous valves and vortexed for 30 seconds to mix the solution well. Finally, 17.6 g of 1,1,1,2,3,3,3-heptafluoropropane (HFA227 (Mexichem)) to make a final volume of 15 mL of rotigotine formulation. All the bottles were hand shaken for 10 seconds.
All in situ salt screening samples were made as 1 mg/mL of rotigtine free base in 10% (w/w) ethanol in HFA 227. Acids corresponding to the salt forms in Table 1 were added according to the molar ratio with rotigotine for complete reaction. As 1 mg/mL was the minimal required dose at the time of experiment, all formulations were tested at this level to screen out non-solution salt formulations.
These were the rotigotine citrate, fumarate, succinate, sulfate, tartrate, xinafoate salt formulations. […] rotigotine salt formulations were immediately ruled out as the precipitate formation was not desired. All clear solution samples were stored at room temperature (RT) for 1 week. […] These were rotigotine acetate, benzoate and mesylate salt formulations. These 3 rotigotine salt formulations were also ruled out as precipitate formation is not desired. The rest of the samples remained as clear solutions (stable) at after another week at 5° C.

Compound	Observation, Immediate	Observation, 1 week at RT	Observation, 1 week at 5° C.	Solution formulation at the minimum required concentration (1 mg/mL, 10% (w/w) ethanol in HFA 227)
CC(=O)O.CCCN(CCc1cccs1)[C@H]1CCc2c(O)cccc2C1 [Acetate, rotigotine acetate]	solution	red precipitate		
CC(O)C(=O)O.CCCN(CCc1cccs1)[C@H]1CCc2c(O)cccc2C1 [Lactate, rotigotine lactate]	solution	solution	solution	
O=S(=O)(O)O [Sulfate]	white precipitate			
Benzoate	solution	red precipitate		
Fumarate	white precipitate			
Tartrate	white precipitate			
rotigotine citrate	white precipitate			
rotigotine glycolate	solution	solution	solution	
rotigotine maleate	solution	solution	solution	stayed in solution
rotigotine palmitate	solution	solution	solution	
rotigotine pamoate	solution	solution	solution	
rotigotine propionate	solution	solution	solution	
rotigotine stearate	solution	solution	solution	
